Measured values published in ChEMBL document CHEMBL1129766, “SAR of 2-benzyl-4-aminopiperidines: CGP 49823, an orally and centrally active non-peptide NK1 antagonist” (Bioorg Med Chem Lett, 1996).
pIC50: −log10 of the molar value. One block for each molecule: values may come before it. The source made the active and inactive calls. No cut-off for these calls is given here.

Experiments:
[1] = tested on: U373 MG; experiment: Compound was tested for inhibition of substance P induced phosphatidyl inositol turnover in human U-373 cells; type: functional, cell-based, U-373MG ATCC
[2] = target: T1, Neuromedin-K receptor (Homo sapiens) (UniProt P29371); conditions: Gerbillinae
T1 sequence (whole entry): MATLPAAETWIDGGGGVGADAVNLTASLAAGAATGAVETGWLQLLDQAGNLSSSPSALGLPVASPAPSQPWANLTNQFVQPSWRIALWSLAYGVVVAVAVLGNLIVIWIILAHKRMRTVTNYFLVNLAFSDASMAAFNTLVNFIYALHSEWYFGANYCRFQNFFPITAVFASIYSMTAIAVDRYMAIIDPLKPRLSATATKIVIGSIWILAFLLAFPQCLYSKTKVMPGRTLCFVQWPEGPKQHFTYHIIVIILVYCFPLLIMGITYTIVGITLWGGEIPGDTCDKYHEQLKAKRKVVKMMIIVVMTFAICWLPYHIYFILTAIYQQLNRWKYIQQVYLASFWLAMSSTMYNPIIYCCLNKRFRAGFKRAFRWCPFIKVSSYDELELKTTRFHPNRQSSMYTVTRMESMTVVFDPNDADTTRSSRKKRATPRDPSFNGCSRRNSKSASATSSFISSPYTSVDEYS

[3] = target: T2, Substance-K receptor (Bos taurus) (UniProt P05363); experiment: Compound was tested for inhibition of [125I]NKA radioligand binding to NK2 receptor from bovine bladder at 1 uM
T2 sequence (whole entry): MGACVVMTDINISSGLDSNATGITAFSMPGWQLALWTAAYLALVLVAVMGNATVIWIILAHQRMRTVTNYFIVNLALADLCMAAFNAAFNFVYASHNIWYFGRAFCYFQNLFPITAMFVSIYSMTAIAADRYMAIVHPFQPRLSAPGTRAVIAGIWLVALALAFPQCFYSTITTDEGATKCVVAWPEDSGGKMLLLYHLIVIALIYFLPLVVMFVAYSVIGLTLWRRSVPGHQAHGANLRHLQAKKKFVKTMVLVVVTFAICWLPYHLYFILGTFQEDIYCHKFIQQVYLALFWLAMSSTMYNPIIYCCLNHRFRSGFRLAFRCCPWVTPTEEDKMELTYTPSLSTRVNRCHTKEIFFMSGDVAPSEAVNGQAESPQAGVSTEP

[4] = tested on: Gerbillinae; experiment: (§1) Tested for inhibition of thumping behavior in gerbils induced by iv administration of SP-methyl ester 2 hours after peroral administration of 30 mg/kg of the compound; type: functional; conditions: route oral
[5] = target: T3, Neuromedin-K receptor (Homo sapiens, UniProt P29371); experiment: Compound was tested for inhibition of [125I]eledoisin radioligand binding to NK3 receptor from gerbil cortex; NA means no activity; set-up: species or system Gerbillinae
T3 sequence (P29371 whole entry): T1 sequence (whole entry)

[6] = target: T4, Substance-K receptor (Bos taurus, UniProt P05363); experiment: (§2) Compound was tested for inhibition of [125I]NKA radioligand binding to NK2 receptor from bovine bladder
T4 sequence (P05363 whole entry): T2 sequence (whole entry)

[7] = tested on: Gerbillinae; experiment: Compound was tested for inhibition of thumping behavior in gerbils induced by iv administration of SP-methyl ester 2 hours after peroral administration of 30 mg/kg of the compound.; type: functional; conditions: route oral
[8] = target: T2, Substance-K receptor (Bos taurus); experiment: as §2; conditions: concentration not given here
[9] = tested on: Gerbillinae; experiment: Tested for inhibition of thumping behavior in gerbils induced by iv administration of SP-methyl ester 2 hours after intraperitoneal administration of 60 mg/kg of the compound; type: functional
[10] = tested on: Gerbillinae; experiment: as §1; type: functional, organism-based; set-up: dose 30 mg/kg, route oral

Structure (SMILES): COc1ccccc1CN[C@H]1C2CCN(CC2)[C@H]1C(c1ccccc1)c1ccccc1 [CP-96345]
pIC50 [1]: 8.05
inhibition [3]: 24%
inhibition in vivo at 30 mg/kg [4]: 61%
IC50 [5]: Not Active

Structure (SMILES): O=C(N[C@H]1CCN(C(=O)c2cc(C(F)(F)F)cc(C(F)(F)F)c2)[C@H](Cc2ccccc2)C1)c1cc(O)nc2ccccc12
inhibition in vivo at 30 mg/kg [7]: 24%
inhibition [8]: 28%

Structure (SMILES): O=C(N[C@H]1CCN(C(=O)c2cc(Cl)cc(Cl)c2)[C@H](Cc2ccccc2)C1)c1ccnc2ccccc12
pIC50 [6]: 5.35
pIC50 [1]: 7.62
inhibition in vivo at 30 mg/kg [7]: 66%

Structure (SMILES): Cc1cc(C)cc(C(=O)N2CC[C@@H](NCc3ccnc4ccccc34)C[C@H]2Cc2ccccc2)c1
inhibition in vivo at 60 mg/kg [9]: 20%

Structure (SMILES): Cc1cc(C)cc(C(=O)N2CC[C@H](NCc3cnc4ccccc4c3)C[C@H]2Cc2ccccc2)c1
pIC50 [1]: 6.68
inhibition [10]: 21%
inhibition [8]: 22%

Continued, in another order:

pIC50 [1]: 6.82
NA [2]: inactive
inhibition [3]: 5%
Structure (SMILES): Cc1cc(C)cc(C(=O)N2CC[C@@H](NCc3ccnc4ccccc34)C[C@@H]2Cc2ccccc2)c1
inhibition in vivo at 30 mg/kg [4]: 54%

pIC50 [6]: 5.55
pIC50 [1]: 7.92
Structure (SMILES): Cc1cc(C)cc(C(=O)N2CC[C@H](NCc3ccnc4ccccc34)C[C@H]2Cc2ccccc2)c1
inhibition in vivo at 30 mg/kg [4]: 34%
